In PubChem BioAssay (NCI):
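GI50 is the concentration that inhibits growth by half. TGI: concentration producing complete growth inhibition.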

Tests used:
Assay in all cases: NCI-60 cell line screen, 384-well format
786-0 renal = test system: 786-0 renal
A498 renal = test system: A498 renal
A549 NSCLC = test system: A549 NSCLC
ACHN renal = test system: ACHN renal
BT-549 breast = test system: BT-549 breast
CAKI-1 renal = test system: CAKI-1 renal
CCRF-CEM leukemia = test system: CCRF-CEM leukemia
COLO 205 colon = test system: COLO 205 colon
DU-145 prostate = test system: DU-145 prostate
EKVX NSCLC = test system: EKVX NSCLC
HCC-2998 colon = test system: HCC-2998 colon
HCT-116 colon = test system: HCT-116 colon
HCT-15 colon = test system: HCT-15 colon
HL-60(TB) leukemia = test system: HL-60(TB) leukemia
HOP-62 NSCLC = test system: HOP-62 NSCLC
HOP-92 NSCLC = test system: HOP-92 NSCLC
HS 578T breast = test system: HS 578T breast
HT29 colon = test system: HT29 colon
IGROV1 ovarian = test system: IGROV1 ovarian
K-562 leukemia = test system: K-562 leukemia
KM12 colon = test system: KM12 colon
M14 melanoma = test system: M14 melanoma
MALME-3M melanoma = test system: MALME-3M melanoma
MCF7 breast = test system: MCF7 breast
MDA-MB-231 breast = test system: MDA-MB-231 breast
MDA-MB-435 melanoma = test system: MDA-MB-435 melanoma
MDA-MB-468 breast = test system: MDA-MB-468 breast
MOLT-4 leukemia = test system: MOLT-4 leukemia
NCI-H226 lung = test system: NCI-H226 lung
NCI-H23 lung = test system: NCI-H23 lung
NCI-H322M lung = test system: NCI-H322M lung
NCI-H460 NSCLC = test system: NCI-H460 NSCLC
NCI-H522 lung = test system: NCI-H522 lung
NCI/ADR-RES ovarian = test system: NCI/ADR-RES ovarian
OVCAR-3 ovarian = test system: OVCAR-3 ovarian
OVCAR-4 ovarian = test system: OVCAR-4 ovarian
OVCAR-5 ovarian = test system: OVCAR-5 ovarian
OVCAR-8 ovarian = test system: OVCAR-8 ovarian
PC-3 prostate = test system: PC-3 prostate
RPMI-8226 leukemia = test system: RPMI-8226 leukemia
RXF 393 renal = test system: RXF 393 renal
SF-268 CNS = test system: SF-268 CNS
SF-295 CNS = test system: SF-295 CNS
SF-539 CNS = test system: SF-539 CNS
SK-MEL-2 melanoma = test system: SK-MEL-2 melanoma
SK-MEL-28 melanoma = test system: SK-MEL-28 melanoma
SK-MEL-5 melanoma = test system: SK-MEL-5 melanoma
SK-OV-3 ovarian = test system: SK-OV-3 ovarian
SN12C renal = test system: SN12C renal
SNB-19 CNS = test system: SNB-19 CNS
SNB-75 CNS = test system: SNB-75 CNS
SR leukemia = test system: SR leukemia
SW-620 colon = test system: SW-620 colon
T-47D breast = test system: T-47D breast
TK-10 renal = test system: TK-10 renal
U251 glioblastoma = test system: U251 glioblastoma
UACC-257 melanoma = test system: UACC-257 melanoma
UACC-62 melanoma = test system: UACC-62 melanoma

O=C1CC(c2c[nH]c3ccc(F)cc23)C(=O)N1 (stereo unspecified)
GI50 ([…]-0 renal): > 100 µM | TGI (786-0 renal): > 100 µM | GI50 (A498 renal): > 100 µM | TGI (A498 renal): > 100 µM | GI50 (A549 NSCLC): > 100 µM | TGI (A549 NSCLC): > 100 µM | GI50 (ACHN renal): > 100 µM | TGI (ACHN renal): > 100 µM | GI50 (BT-549 breast): > 100 µM | TGI (BT-549 breast): > 100 µM | GI50 (CAKI-1 renal): > 100 µM | TGI (CAKI-1 renal): > 100 µM | GI50 (CCRF-CEM leukemia): > 100 µM | TGI (CCRF-CEM leukemia): > 100 µM | GI50 (COLO 205 colon): > 100 µM | TGI (COLO 205 colon): > 100 µM | GI50 (DU-145 prostate): > 100 µM | TGI (DU-145 prostate): > 100 µM | GI50 (EKVX NSCLC): > 100 µM | TGI (EKVX NSCLC): > 100 µM | GI50 (HCC-2998 colon): > 100 µM | TGI (HCC-2998 colon): > 100 µM | GI50 (HCT-116 colon): > 100 µM | TGI (HCT-116 colon): > 100 µM | GI50 (HCT-15 colon): > 100 µM | TGI (HCT-15 colon): > 100 µM | GI50 (HL-60(TB) leukemia): > 100 µM | TGI (HL-60(TB) leukemia): > 100 µM | GI50 (HOP-62 NSCLC): > 100 µM | TGI (HOP-62 NSCLC): > 100 µM | GI50 (HOP-92 NSCLC): > 100 µM | TGI (HOP-92 NSCLC): > 100 µM | GI50 (HS 578T breast): > 100 µM | TGI (HS 578T breast): > 100 µM | GI50 (HT29 colon): > 100 µM | TGI (HT29 colon): > 100 µM | GI50 (IGROV1 ovarian): > 100 µM | TGI (IGROV1 ovarian): > 100 µM | GI50 (K-562 leukemia): > 100 µM | TGI (K-562 leukemia): > 100 µM | GI50 (KM12 colon): > 100 µM | TGI (KM12 colon): > 100 µM | GI50 (M14 melanoma): > 100 µM | TGI (M14 melanoma): > 100 µM | GI50 (MALME-3M melanoma): > 100 µM | TGI (MALME-3M melanoma): > 100 µM | GI50 (MCF7 breast): > 100 µM | TGI (MCF7 breast): > 100 µM | GI50 (MDA-MB-231 breast): > 100 µM | TGI (MDA-MB-231 breast): > 100 µM | GI50 (MDA-MB-435 melanoma): > 100 µM | TGI (MDA-MB-435 melanoma): > 100 µM | GI50 (MDA-MB-468 breast): > 100 µM | TGI (MDA-MB-468 breast): > 100 µM | GI50 (MOLT-4 leukemia): > 100 µM | TGI (MOLT-4 leukemia): > 100 µM | GI50 (NCI-H226 lung): > 100 µM | TGI (NCI-H226 lung): > 100 µM | GI50 (NCI-H23 lung): > 100 µM | TGI (NCI-H23 lung): > 100 µM | GI50 (NCI-H322M lung): > 100 µM | TGI (NCI-H322M lung): > 100 µM | GI50 (NCI-H460 NSCLC): > 100 µM | TGI (NCI-H460 NSCLC): > 100 µM | GI50 (NCI-H522 lung): > 100 µM | TGI (NCI-H522 lung): > 100 µM | GI50 (NCI/ADR-RES ovarian): > 100 µM | TGI (NCI/ADR-RES ovarian): > 100 µM | GI50 (OVCAR-3 ovarian): > 100 µM | TGI (OVCAR-3 ovarian): > 100 µM | GI50 (OVCAR-4 ovarian): > 100 µM | TGI (OVCAR-4 ovarian): > 100 µM | GI50 (OVCAR-5 ovarian): > 100 µM | TGI (OVCAR-5 ovarian): > 100 µM | GI50 (OVCAR-8 ovarian): > 100 µM | TGI (OVCAR-8 ovarian): > 100 µM | GI50 (PC-3 prostate): > 100 µM | TGI (PC-3 prostate): > 100 µM | GI50 (RPMI-8226 leukemia): > 100 µM | TGI (RPMI-8226 leukemia): > 100 µM | GI50 (RXF 393 renal): > 100 µM | TGI (RXF 393 renal): > 100 µM | GI50 (SF-268 CNS): > 100 µM | TGI (SF-268 CNS): > 100 µM | GI50 (SF-295 CNS): > 100 µM | TGI (SF-295 CNS): > 100 µM | GI50 (SF-539 CNS): > 100 µM | TGI (SF-539 CNS): > 100 µM | GI50 (SK-MEL-2 melanoma): > 100 µM | TGI (SK-MEL-2 melanoma): > 100 µM | GI50 (SK-MEL-28 melanoma): > 100 µM | TGI (SK-MEL-28 melanoma): > 100 µM | GI50 (SK-MEL-5 melanoma): > 100 µM | TGI (SK-MEL-5 melanoma): > 100 µM | GI50 (SK-OV-3 ovarian): > 100 µM | TGI (SK-OV-3 ovarian): > 100 µM | GI50 (SN12C renal): > 100 µM | TGI (SN12C renal): > 100 µM | GI50 (SNB-19 CNS): > 100 µM | TGI (SNB-19 CNS): > 100 µM | GI50 (SNB-75 CNS): > 100 µM | TGI (SNB-75 CNS): > 100 µM | GI50 (SR leukemia): > 100 µM | TGI (SR leukemia): > 100 µM | GI50 (SW-620 colon): > 100 µM | TGI (SW-620 colon): > 100 µM | GI50 (T-47D breast): > 100 µM | TGI (T-47D breast): > 100 µM | GI50 (TK-10 renal): > 100 µM | TGI (TK-10 renal): > 100 µM | GI50 (U251 glioblastoma): > 100 µM | TGI (U251 glioblastoma): > 100 µM | GI50 (UACC-257 melanoma): > 100 µM | TGI (UACC-257 melanoma): > 100 µM | GI50 (UACC-62 melanoma): > 100 µM | TGI (UACC-62 melanoma): > 100 µM
